Reference: patent publication US20260041649A1, “ANTI-INFLAMMATORY AGENT” (WATANABE OYSTER LABORATORY, CO., LTD., priority 2023, published 2026)

System: RAW264.7 cells stimulated with LPS
Experiment: Measurement of osteoclast formation (TRACP-positive MNCs)
Type: cell-based, mouse
Procedure: Cells (1×10^5 cells/1 ml per well in a 24-well plate) were cultured for 3 days in DMEM containing 10% FBS, 1% P/S, and 1% fungizone in the control group (1% ethanol as final concentration) and in the DHMBA-treated group (0.1, 1, 10, or 100 μM) with or without LPS (100 ng/ml). The old culture medium was replaced with fresh conditioned culture medium (0.5 ml) containing LPS and/or DHMBA, and the cells were cultured for another 3 days (FIG. 9A). Cells (1×10^5 cells/1 ml per well in a 24-well plate) were cultured for 3 days in the above DMEM culture medium with LPS (100 ng/ml) but without DHMBA. […] TRACP-positive multinucleated cells (MNCs) (with 3 or more nuclei) were counted as osteoclast-like cells under a microscope (40× magnification). […]
RAW264.7 cells (1×10^5 cells/1 ml per well in a 24-well plate) were cultured for 3 days in a DMEM culture medium containing 10% FBS, 1% P/S, and 1% fungizone in the control group (1% ethanol in the culture medium as final concentration) and the LPS-treated group (100 ng/ml in the culture medium) with or without DHMBA (0.1, 1, 10, or 100 μM). […] TRACP-positive multinucleated cells (MNCs) having three or more nuclei were counted as osteoclast-like cells under a microscope (40× magnification) (Olympus MTV-3; Olympus Corp., Tokyo, Japan). […]

## COc1c(O)cc(CO)cc1O [DHMBA, 3,5-dihydroxy-4-methoxybenzyl alcohol]
3 days LPS 100 ng/ml alone, then 3 days LPS plus DHMBA 0.1, 1, 10 or 100 μM
  LPS-enhanced osteoclast formation, late stage: suppressed
LPS 100 ng/ml and DHMBA 0.1, 1, 10 or 100 μM together for 6 days
  LPS-enhanced osteoclast formation: suppressed
